Source: PubChem BioAssay (NCI)
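Grown in 96-well plates, cells were treated for 48 hours with each compound at five concentrations. Insufficient inhibition: endpoint recorded as highest concentration tested. GI50 marks 50% less growth. TGI is the concentration that stops growth completely.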

Assays:
Assay in all cases: NCI anticancer screen, dose series, 48 h
SW-620 colon = test system: SW-620 colon
HOP-92 NSCLC = test system: HOP-92 NSCLC
NCI-H23 lung = test system: NCI-H23 lung
SK-MEL-28 melanoma = test system: SK-MEL-28 melanoma
ACHN renal = test system: ACHN renal
RXF 393 renal = test system: RXF 393 renal
LOX IMVI melanoma = test system: LOX IMVI melanoma
UACC-257 melanoma = test system: UACC-257 melanoma
HOP-62 NSCLC = test system: HOP-62 NSCLC
OVCAR-4 ovarian = test system: OVCAR-4 ovarian
U251 CNS = test system: U251 CNS
SK-MEL-2 melanoma = test system: SK-MEL-2 melanoma
NCI/ADR-RES ovarian = test system: NCI/ADR-RES ovarian
MDA-MB-468 breast = test system: MDA-MB-468 breast
MOLT-4 leukemia = test system: MOLT-4 leukemia
SN12C renal = test system: SN12C renal
HL-60(TB) leukemia = test system: HL-60(TB) leukemia
SF-539 CNS = test system: SF-539 CNS
RPMI-8226 leukemia = test system: RPMI-8226 leukemia
CAKI-1 renal = test system: CAKI-1 renal
HCT-15 colon = test system: HCT-15 colon
SK-MEL-5 melanoma = test system: SK-MEL-5 melanoma
EKVX NSCLC = test system: EKVX NSCLC
A549 NSCLC = test system: A549 NSCLC
HCC-2998 colon = test system: HCC-2998 colon
K-562 leukemia = test system: K-562 leukemia
M14 melanoma = test system: M14 melanoma
DU-145 prostate = test system: DU-145 prostate
IGROV1 ovarian = test system: IGROV1 ovarian
786-0 renal = test system: 786-0 renal
PC-3 prostate = test system: PC-3 prostate
SK-OV-3 ovarian = test system: SK-OV-3 ovarian
MCF7 breast = test system: MCF7 breast
NCI-H522 lung = test system: NCI-H522 lung
OVCAR-3 ovarian = test system: OVCAR-3 ovarian
SNB-19 CNS = test system: SNB-19 CNS
NCI-H460 lung = test system: NCI-H460 lung
OVCAR-8 ovarian = test system: OVCAR-8 ovarian
UACC-62 melanoma = test system: UACC-62 melanoma
SF-295 CNS = test system: SF-295 CNS
HS 578T breast = test system: HS 578T breast
TK-10 renal = test system: TK-10 renal
MDA-MB-435 = test system: MDA-MB-435
SF-268 CNS = test system: SF-268 CNS
HT29 colon = test system: HT29 colon
HCT-116 colon = test system: HCT-116 colon
NCI-H226 lung = test system: NCI-H226 lung
A498 renal = test system: A498 renal
OVCAR-5 ovarian = test system: OVCAR-5 ovarian
KM12 colon = test system: KM12 colon
SNB-75 CNS = test system: SNB-75 CNS
MALME-3M melanoma = test system: MALME-3M melanoma
CCRF-CEM leukemia = test system: CCRF-CEM leukemia
BT-549 breast = test system: BT-549 breast
COLO 205 colon = test system: COLO 205 colon
T-47D breast = test system: T-47D breast

O=C(c1ccccc1)n1ccc(-c2cc3cc(Br)ccc3oc2=O)n1
GI50 (SW-620 colon): 5.15 µM
TGI (SW-620 colon): > 100 µM
GI50 (HOP-92 NSCLC): 0.545 µM
TGI (HOP-92 NSCLC): > 100 µM
GI50 (NCI-H23 lung): 5.87 µM
TGI (NCI-H23 lung): > 100 µM
GI50 (SK-MEL-28 melanoma): 6.05 µM
TGI (SK-MEL-28 melanoma): > 100 µM
GI50 (ACHN renal): 3.94 µM
TGI (ACHN renal): > 100 µM
GI50 (RXF 393 renal): 6.18 µM
TGI (RXF 393 renal): > 100 µM
GI50 (LOX IMVI melanoma): 2.8 µM
TGI (LOX IMVI melanoma): 90.9 µM
GI50 (UACC-257 melanoma): 4 µM
TGI (UACC-257 melanoma): 30.2 µM
GI50 (HOP-62 NSCLC): 3.48 µM
TGI (HOP-62 NSCLC): > 100 µM
GI50 (OVCAR-4 ovarian): 4.56 µM
TGI (OVCAR-4 ovarian): > 100 µM
GI50 (U251 CNS): 4.82 µM
TGI (U251 CNS): > 100 µM
GI50 (SK-MEL-2 melanoma): 5.6 µM
TGI (SK-MEL-2 melanoma): 74.7 µM
GI50 (NCI/ADR-RES ovarian): 4.13 µM
TGI (NCI/ADR-RES ovarian): 81.3 µM
GI50 (MDA-MB-468 breast): 3.6 µM
TGI (MDA-MB-468 breast): 25.2 µM
GI50 (MOLT-4 leukemia): 3.32 µM
TGI (MOLT-4 leukemia): 9.55 µM
GI50 (SN12C renal): 6.28 µM
TGI (SN12C renal): > 100 µM
GI50 (HL-60(TB) leukemia): 2.09 µM
TGI (HL-60(TB) leukemia): 5.49 µM
GI50 (SF-539 CNS): 7.44 µM
TGI (SF-539 CNS): 67.3 µM
GI50 (RPMI-8226 leukemia): 3.8 µM
TGI (RPMI-8226 leukemia): > 100 µM
GI50 (CAKI-1 renal): 4.16 µM
TGI (CAKI-1 renal): > 100 µM
GI50 (HCT-15 colon): 2.88 µM
TGI (HCT-15 colon): > 100 µM
GI50 (SK-MEL-5 melanoma): 4.14 µM
TGI (SK-MEL-5 melanoma): 23.6 µM
GI50 (EKVX NSCLC): 2.7 µM
TGI (EKVX NSCLC): > 100 µM
GI50 (A549 NSCLC): 12.6 µM
TGI (A549 NSCLC): > 100 µM
GI50 (HCC-2998 colon): 5.29 µM
TGI (HCC-2998 colon): > 100 µM
GI50 (K-562 leukemia): 3.59 µM
TGI (K-562 leukemia): > 100 µM
GI50 (M14 melanoma): 3.94 µM
TGI (M14 melanoma): 24 µM
GI50 (DU-145 prostate): 8.9 µM
TGI (DU-145 prostate): > 100 µM
GI50 (IGROV1 ovarian): 5.48 µM
TGI (IGROV1 ovarian): > 100 µM
GI50 (786-0 renal): 3.99 µM
TGI (786-0 renal): > 100 µM
GI50 (PC-3 prostate): 4.05 µM
TGI (PC-3 prostate): > 100 µM
GI50 (SK-OV-3 ovarian): 6.08 µM
TGI (SK-OV-3 ovarian): 62.5 µM
GI50 (MCF7 breast): 2.74 µM
TGI (MCF7 breast): > 100 µM
GI50 (NCI-H522 lung): 3.36 µM
TGI (NCI-H522 lung): 17 µM
GI50 (OVCAR-3 ovarian): 2.06 µM
TGI (OVCAR-3 ovarian): > 100 µM
GI50 (SNB-19 CNS): 9.97 µM
TGI (SNB-19 CNS): > 100 µM
GI50 (NCI-H460 lung): 3.78 µM
TGI (NCI-H460 lung): > 100 µM
GI50 (OVCAR-8 ovarian): 2.73 µM
TGI (OVCAR-8 ovarian): 51.6 µM
GI50 (UACC-62 melanoma): 3.55 µM
TGI (UACC-62 melanoma): 22.9 µM
GI50 (SF-295 CNS): 8.91 µM
TGI (SF-295 CNS): > 100 µM
GI50 (HS 578T breast): 17.5 µM
TGI (HS 578T breast): > 100 µM
GI50 (TK-10 renal): 47.5 µM
TGI (TK-10 renal): > 100 µM
GI50 (MDA-MB-435): 14.7 µM
TGI (MDA-MB-435): > 100 µM
GI50 (SF-268 CNS): 4.29 µM
TGI (SF-268 CNS): > 100 µM
GI50 (HT29 colon): 16.5 µM
TGI (HT29 colon): > 100 µM
GI50 (HCT-116 colon): 3.52 µM
TGI (HCT-116 colon): > 100 µM
GI50 (NCI-H226 lung): 7.23 µM
TGI (NCI-H226 lung): 62.1 µM
GI50 (A498 renal): > 100 µM
TGI (A498 renal): > 100 µM
GI50 (OVCAR-5 ovarian): 13.9 µM
TGI (OVCAR-5 ovarian): > 100 µM
GI50 (KM12 colon): 4.45 µM
TGI (KM12 colon): > 100 µM
GI50 (SNB-75 CNS): 7.09 µM
TGI (SNB-75 CNS): > 100 µM
GI50 (MALME-3M melanoma): 5.9 µM
TGI (MALME-3M melanoma): > 100 µM
GI50 (CCRF-CEM leukemia): 1.52 µM
TGI (CCRF-CEM leukemia): 15.6 µM
GI50 (BT-549 breast): 5.18 µM
TGI (BT-549 breast): 78 µM
GI50 (COLO 205 colon): 19.1 µM
TGI (COLO 205 colon): 73.6 µM
GI50 (T-47D breast): 6.22 µM
TGI (T-47D breast): 70.9 µM
